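Cultured in 96-well plates, cells were exposed to test compound for 48 hours across five concentrations. Here, GI50 denotes the concentration required for 50% inhibition of growth. TGI: concentration producing complete growth inhibition.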
Tests used:
Test in all cases: inhibition of tumour cell growth, NCI panel, 48 h
[1] = system: HS 578T breast
[2] = system: BT-549 breast
[3] = system: SK-MEL-28 melanoma
[4] = system: SR leukemia
[5] = system: HCC-2998 colon
[6] = system: NCI-H460 lung
[7] = system: OVCAR-3 ovarian
[8] = system: MDA-N
[9] = system: 786-0 renal

Compound | GI50 [1] | TGI [1] | GI50 [2] | TGI [2] | GI50 [3] | TGI [3] | GI50 [4] | TGI [4] | GI50 [5] | TGI [5] | GI50 [6] | TGI [6] | GI50 [7] | TGI [7] | TGI [8] | TGI [9] | GI50 [8]
Clc1ccc(Nc2nc(Nc3ccccc3)nc(Nc3ccc(-c4cc(-c5ccc(Cl)cc5)on4)cc3)n2)cc1 | 11.4 µM | > 100 µM | 32.9 µM | > 100 µM | 40.3 µM | > 100 µM | 26 µM | > 100 µM | 29.1 µM | > 100 µM | 17.9 µM | > 100 µM | 27.4 µM | > 100 µM | – | – | –
N#Cc1ccccc1C#C/C=C\C#Cc1ccccc1N | 5.29 µM | > 25.5 µM | 8.39 µM | > 28.2 µM | 9.78 µM | > 74 µM | 0.745 µM | 2.52 µM | 0.808 µM | 4.11 µM | 5.43 µM | > 100 µM | 0.165 µM | 2.64 µM | – | – | –
CC(=O)Nc1ccc(C(=O)NN2C(=O)C(Cl)C2c2cccc([N+](=O)[O-])c2)cc1 (stereo not drawn) | – | – | – | – | – | > 100 µM | – | > 100 µM | – | > 100 µM | – | > 100 µM | – | > 100 µM | – | – | –
O=S(=O)(O)c1ccc2c(N=Nc3ccc(N=Nc4ccccc4)cc3)c(O)c(S(=O)(=O)O)cc2c1 | – | > 100 µM | – | > 100 µM | – | > 100 µM | – | > 100 µM | – | > 100 µM | – | > 100 µM | – | > 100 µM | > 100 µM | > 100 µM | –
Nc1cc(S(=O)(=O)O)cc2ccc(S(=O)(=O)O)cc12 | – | > 100 µM | – | > 100 µM | – | > 100 µM | – | > 100 µM | – | > 100 µM | – | > 100 µM | – | > 100 µM | > 100 µM | > 100 µM | –
O=C(Nc1ccc(-n2ccc3c(NC(=O)c4ccccc4)nccc32)cc1)Nc1cccc(C(F)(F)F)c1 | 6.39 µM | 40 µM | – | – | 7.36 µM | 21 µM | 1.49 µM | 4.28 µM | 7.46 µM | 22.4 µM | 2.74 µM | 13.4 µM | 2.93 µM | 7.15 µM | – | – | –
C[N+]1(CCC(=O)c2ccccc2)CCC2CCC(C2)C1 (stereo not drawn) | – | > 100 µM | – | > 100 µM | – | > 100 µM | – | > 100 µM | – | > 100 µM | – | > 100 µM | – | > 100 µM | > 100 µM | > 100 µM | –
CC1=CC(O)C(C(O)(C(F)(F)F)C(F)(F)F)C(C)(C)C1 (stereo not drawn) | – | > 10 µM | – | > 10 µM | – | > 10 µM | – | – | – | > 10 µM | – | > 10 µM | – | > 10 µM | > 10 µM | – | –
Cc1oc(N)c(S(=O)(=O)c2cc3ccccc3n(O)c2=N)c1C | – | > 100 µM | – | > 100 µM | – | > 100 µM | – | – | – | > 100 µM | – | > 100 µM | – | > 100 µM | > 100 µM | > 100 µM | –
CC1=C[C@@H](C)C[C@]2(C)CC[C@H](O2)[C@]23CC[C@](CO)(C[C@H](O2)[C@@H]2O[C@@](C)(CC2=O)[C@@H](O)[C@H]2CC[C@@]4(CCC[C@@H](O4)[C@H](C)C(=O)O[C@H]4C[C@H]([C@]5(O)OCC[C@H](C)[C@@H]5O)O[C@H]4C=C1)O2)O3 | – | 0.00776 µM | – | 0.258 µM | – | 0.0391 µM | – | > 10 µM | – | > 10 µM | – | > 10 µM | – | 0.102 µM | > 10 µM | – | –
CC1C(=O)c2cc3c(cc2CCN(C)Cc2c1ccc1c2OCO1)OCO3 (stereo not drawn) | > 75 µg/mL | > 75 µg/mL | 59 µg/mL | > 75 µg/mL | 30.9 µg/mL | > 75 µg/mL | 13.3 µg/mL | 40.9 µg/mL | 14.1 µg/mL | 33.5 µg/mL | 40.3 µg/mL | > 75 µg/mL | > 75 µg/mL | > 75 µg/mL | > 75 µg/mL | – | > 75 µg/mL
N=c1ccc2nc(N)nn(O)c-2c1 | – | > 100 µM | – | > 100 µM | – | > 100 µM | – | > 100 µM | – | – | – | > 100 µM | – | > 100 µM | > 100 µM | > 100 µM | –
CC1(C(=O)O)C[C@](C)(C(=O)OCc2ccccc2)C[C@](C)(C(=O)OCc2ccccc2)C1 (stereo partly drawn) | – | 89.8 µM | – | 65.6 µM | – | > 100 µM | – | 83.7 µM | – | 79.8 µM | – | 57.5 µM | – | 73.7 µM | > 100 µM | > 100 µM | –

From PubChem BioAssay (NCI)
